Reference: patent publication US8084459B2, “Substituted quinazolinones for treating neurological conditions” (Prana Biotechnology Ltd, priority 2004, dated 2011)

Assays:
Aβ plaques = assay: Assay 14 transgenic mouse brain immunohistochemistry (plaque score); format: in vivo; details: APP2576 mice
Excerpt: Assay 14. Transgenic Mouse Brain Immunohistochemistry
The APP2576 transgenic mouse (Hsiao et al., 1996) as referred to in Assay 11 is utilized in this assay. The contralateral formalin-fixed mouse brain tissue is coronally cut. Sections (10 μm) are taken from the corresponding sites and treated with 80% formic acid for antigen retrieval. The primary antibody used is monoclonal antibody 1E8, which recognizes epitopes between residues 18 and 22 of Aβ (SmithKline Beecham, UK). Immunoreactivity is developed with secondary antibody linked to horseradish peroxidase (using a 3,39-diaminobenzidinechromagen) (Dako) and alkaline phosphatase (using 5-bromo-4-chloro 3-indoxyl phosphate and nitroblue tetrazolium chloride chromagen) (Dako). Plaque abundance per section is assessed by two operators blinded to treatment according to the following scale:
1=plaques present but very sparse
2=several plaques present
3=numerous plaques visible in restricted areas
4=plaques abundant and not restricted to any particular area.
Intermediate values eg 2.5 are assigned where applicable. Students ‘t’ test is used for comparisons between groups.

[1] = system: soluble and insoluble Aβ in the brain; assay: Assay 11 effect on Aβ deposits in transgenic animals (soluble and insoluble Aβ, Western blot); format: in vivo, APP2576 transgenic mouse; details: APP2576 mice; for Tg mice Insoluble Fraction: % change compared with vehicle alone control mice: insoluble Aβ; for Tg mice Soluble Fraction: % change compared with vehicle alone control mice: soluble Aβ
[2] = Assay 16 mouse plasma levels of test compounds; format: in vivo; details: for Conc. in mouse plasma / concentration at 30 min / concentration at 60 min: single mouse; for Assay 16 Mice plasma concentration: highest level found in mice (Up to), oral dosing 30 mg/kg described for PB 1075-1077; for concentration at 30 min / concentration at 60 min: mouse, plasma, po, 30 mg/kg, read-out: Conc. in mouse plasma
In short: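 Compound given orally by gavage at 30 mg/kg as CMC suspension to four mice; two sacrificed at 30 min and two at 60 min, plasma from cardiac blood. Plasma levels by LC/MS (triple quadrupole, C8 column, ACN/water 0.05% formic acid gradient) after ACN protein precipitation.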

Aβ 1-42 = target: T1, Aβ 1-42 (Homo sapiens, UniProt P05067); assay: Assay 1 Fluorometric H2O2 assay (peroxide); format: biochemical; details: inhibition of H2O2 generation by Aβ with copper
T1 construct: The reaction solutions contained Aβ 1-42 at concentrations
In short: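 DCF fluorescence (ex 485/em 530 nm) after 60 min at 37 °C in PBS pH 7.4; Aβ 1-42 (50 nM–1 μM) with Cu-Gly (2:1 to Aβ), dopamine 5 μM or ascorbate, deacetylated DCF 100 μM, HRP 0.1 μM, and test compound. H2O2 quantified against H2O2 standards.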

[3] = 30 min after oral dosing at 30 mg/kg
[4] = 60 min after oral dosing at 30 mg/kg

T1 sequence (P05067 672-713 limits assumed): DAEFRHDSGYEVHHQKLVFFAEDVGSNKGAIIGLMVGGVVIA

Row | SMILES | Conc. in mouse plasma ([2]; 30 min after oral dosing at 30 mg/kg, listed as PB 1075, 30 mg/kg) [ng/mL] | Conc. in mouse plasma ([2]; 60 min after oral dosing at 30 mg/kg, listed as PB 1075, 30 mg/kg) [ng/mL] | Assay 16 Mice plasma concentration [2] | concentration at 30 min [2, 3] [ng/mL] | concentration at 60 min [2, 4] [ng/mL] | IC50 (Aβ 1-42) [nM] | Conc. in mouse plasma ([2]; 30 min after oral dosing at 30 mg/kg, listed as PB 1077, 30 mg/kg) [ng/mL] | Conc. in mouse plasma ([2]; 60 min after oral dosing at 30 mg/kg, listed as PB 1077, 30 mg/kg) [ng/mL] | Plaques score: average count score per treatment group relative to the vehicle (sham) treated group (Aβ plaques) | Tg mice Insoluble Fraction: % change compared with vehicle alone control mice [1] | Tg mice Soluble Fraction: % change compared with vehicle alone control mice [1]
1 | O=c1c2c(Cl)cc(Cl)c(O)c2ncn1CCN1CCCC1 [Compound 1075] | 298.46 | 424.81 | Up to 520 ng/mL | 431 | 520 | 730 | – | – | −22% (plaque) | +9% (insol), | −19% (sol),
2 | Cc1noc(C)c1Cn1cnc2c(O)c(Cl)cc(Cl)c2c1=O [Compound 1085] | – | – | Upto 3644 ng/mL | – | – | 370 | – | – | – | – | –
3 | Br.CCCn1cnc2c(O)c(Cl)cc(Cl)c2c1=O [Compound 1097] | – | – | Upto 261 ng/mL in | – | – | 280 | – | – | −3% (plaque) | +1% (insol) | −22% (sol)

Second part, led by results:

Row | Conc. in mouse plasma ([2]; 30 min after oral dosing at 30 mg/kg, listed as PB 1075, 30 mg/kg) [ng/mL] | Conc. in mouse plasma ([2]; 60 min after oral dosing at 30 mg/kg, listed as PB 1075, 30 mg/kg) [ng/mL] | Assay 16 Mice plasma concentration [2] | concentration at 30 min [2, 3] [ng/mL] | concentration at 60 min [2, 4] [ng/mL] | IC50 (Aβ 1-42) [nM] | Conc. in mouse plasma ([2]; 30 min after oral dosing at 30 mg/kg, listed as PB 1077, 30 mg/kg) [ng/mL] | Conc. in mouse plasma ([2]; 60 min after oral dosing at 30 mg/kg, listed as PB 1077, 30 mg/kg) [ng/mL] | SMILES | Plaques score: average count score per treatment group relative to the vehicle (sham) treated group (Aβ plaques) | Tg mice Insoluble Fraction: % change compared with vehicle alone control mice [1] | Tg mice Soluble Fraction: % change compared with vehicle alone control mice [1]
4 | – | – | Up to 984 ng/mL | 731 | 495 | 480 | 984.7 | 752.8 | O=c1c2c(Cl)cc(Cl)c(O)c2ncn1Cc1ccccn1 [Compound 1077] | −30% (plaque) | Negligible effect on | −17% (sol),
5 | – | – | Upto 2439 ng/mL | – | – | 360 | – | – | Cc1nc(Cn2cnc3c(O)c(Cl)cc(Cl)c3c2=O)cs1 [Compound 1084] | −21% (plaque) | −17% (insol), | −29% (sol)
